Measurements reported in patent publication US20080021026A1, “BENZOTHIOPHENE INHIBITORS OF RHO KINASE” (priority 2006, published 2008).
pIC50: −log10 of the molar value. Where two headings read alike, the source gives them in different places.

Experiments:
[1] = target: T1, recombinant N-terminal GST-tagged human Rho kinase 1 (ROCK1, amino acids 1-535) (Homo sapiens, UniProt Q13464); assay: In vitro Rho kinase assay (luciferase-based ATP consumption), ROCK1; format: biochemical
T1 construct: ROCK1, amino acids 1-535; purchased Invitrogen Inc. PV-3691
T1 sequence (Q13464 1-535): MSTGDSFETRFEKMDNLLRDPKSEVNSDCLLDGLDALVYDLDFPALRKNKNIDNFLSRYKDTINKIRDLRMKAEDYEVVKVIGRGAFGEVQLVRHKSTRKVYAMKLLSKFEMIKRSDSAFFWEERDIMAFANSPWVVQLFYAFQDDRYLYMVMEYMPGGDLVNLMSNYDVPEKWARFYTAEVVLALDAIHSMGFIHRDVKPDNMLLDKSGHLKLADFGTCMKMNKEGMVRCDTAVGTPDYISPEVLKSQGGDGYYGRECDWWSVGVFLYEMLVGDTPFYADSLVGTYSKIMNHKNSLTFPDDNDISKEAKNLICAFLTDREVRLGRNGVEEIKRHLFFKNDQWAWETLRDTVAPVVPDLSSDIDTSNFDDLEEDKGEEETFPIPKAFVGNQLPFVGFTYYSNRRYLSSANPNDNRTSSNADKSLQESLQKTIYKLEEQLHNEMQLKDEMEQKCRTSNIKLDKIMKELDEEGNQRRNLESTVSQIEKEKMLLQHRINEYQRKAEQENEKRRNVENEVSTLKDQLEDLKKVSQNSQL
Outline: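 GST-ROCK1 (aa 1-535) at 0.82 μg/ml with 100 μg/ml S6 peptide and 3 µM ATP in Tris pH 7.5 buffer with MgCl2, CaCl2, EGTA, BSA; compound added after reaction start, 2 h at 30 °C. Remaining ATP read by luciferase luminescence; efficacy as percent of H-1152P positive control.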

[2] = target: T2, recombinant N-terminal GST-tagged human Rho kinase 2 (ROCK2, amino acids 1-552) (Homo sapiens, UniProt O75116); assay: In vitro Rho kinase assay (luciferase-based ATP consumption), ROCK2; format: biochemical
T2 construct: ROCK2, amino acids 1-552; purchased Invitrogen Inc. PV3759
T2 sequence (O75116 1-552): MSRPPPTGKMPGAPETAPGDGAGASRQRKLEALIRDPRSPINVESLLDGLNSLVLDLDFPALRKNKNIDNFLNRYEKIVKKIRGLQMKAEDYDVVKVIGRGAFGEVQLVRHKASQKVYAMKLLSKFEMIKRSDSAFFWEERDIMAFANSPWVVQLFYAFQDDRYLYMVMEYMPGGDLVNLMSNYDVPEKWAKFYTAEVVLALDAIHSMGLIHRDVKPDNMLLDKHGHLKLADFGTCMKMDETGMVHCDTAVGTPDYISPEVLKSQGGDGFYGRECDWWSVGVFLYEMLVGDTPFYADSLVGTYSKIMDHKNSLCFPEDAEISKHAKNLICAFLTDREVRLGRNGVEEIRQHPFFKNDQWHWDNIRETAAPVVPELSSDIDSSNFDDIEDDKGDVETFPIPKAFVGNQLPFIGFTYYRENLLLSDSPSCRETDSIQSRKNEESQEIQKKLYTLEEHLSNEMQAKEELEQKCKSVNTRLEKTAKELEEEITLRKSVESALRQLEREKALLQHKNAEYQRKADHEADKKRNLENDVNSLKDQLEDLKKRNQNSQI
Outline: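 GST-ROCK2 (aa 1-552, 0.82 μg/ml) with 100 μg/ml S6 peptide and 3 µM ATP in Tris pH 7.5 buffer with MgCl2/CaCl2/EGTA/BSA, compound added just after reaction start, 2 h at 30 °C. Remaining ATP read by luciferase luminescence. Efficacy expressed as percentage of H-1152P positive control.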

[3] = recombinant GST-tagged human ROCK1, luciferase-based ATP consumption, read-out: ROCK1 IC50
[4] = recombinant GST-tagged human ROCK2, luciferase-based ATP consumption, read-out: ROCK2 IC50

SMILES	pIC50 [1, 3]	pIC50 [2, 4]	pIC50 ([1]; ROCK1 IC50, recombinant GST-tagged human ROCK1, luciferase-based ATP consumption)	pIC50 ([2]; ROCK2 IC50, recombinant GST-tagged human ROCK2, luciferase-based ATP consumption)
Cc1ccc(C(=O)CCC(=O)NCc2ccc3sc(-c4ccnc(N)n4)c(C)c3c2)cc1 [Example 250, Cc1ccc(cc1)C(═O)CCC(═O)NCc2ccc3sc(c(C)c3c2)-c4ccnc(N)n4]	< 5.30	> 5.30	–	–
Cc1c(-c2ccnc(N)n2)sc2ccc(CNC(=O)c3cc(Cl)ccc3O)cc12 [Example 191, Cc1c(sc2ccc(CNC(═O)c3cc(Cl)ccc3O)cc12)-c4ccnc(N)n4]	< 5.30	> 5.30	–	–
CCC(=O)C(=O)NCc1ccc2sc(-c3ccnc(N)n3)c(C)c2c1 [Example 99, CCC(═O)C(═O)NCc1ccc2sc(c(C)c2c1)-c3ccnc(N)n3]	> 5.30	> 5.30	–	–
Cc1c(-c2ccnc(N)n2)sc2ccc(CNC(=O)c3c(F)cccc3Cl)cc12 [Example 195, Cc1c(sc2ccc(CNC(═O)c3c(F)cccc3Cl)cc12)-c4ccnc(N)n4]	–	–	> 5.30	> 5.30
COC(=O)c1ccc(C(=O)Nc2cccc(Nc3ccc4sc(-c5ccnc(N)n5)c(C)c4c3)c2)cc1 [Example 62, Methyl 4-(3-(2-(2-aminopyrimidin-4-yl)-3-methylbenzo[b]thiophen-5-ylamino)phenylcarbamoyl)benzoate]	> 5.30	> 5.30	–	–
Cc1c(-c2ccnc(N)n2)sc2ccc(Nc3ccc4c(c3)OCO4)cc12 [Example 70, 4-(5-(Benzo[d][1,3]dioxol-5-ylamino)-3-methylbenzo[b]thiophen-2-yl)pyrimidin-2-amine]	> 5.30	> 5.30	–	–
Cc1c(-c2ccnc(N)n2)sc2ccc(CNC(=O)C3=CCCC3)cc12 [Example 104, Cc1c(sc2ccc(CNC(═O)C3═CCCC3)cc12)-c4ccnc(N)n4]	> 5.30	> 5.30	–	–
Cc1c(-c2ccnc(N)n2)sc2ccc(CNC(=O)c3ccccc3Oc3ccccc3)cc12 [Example 283, Cc1c(sc2ccc(CNC(═O)c3ccccc3Oc4ccccc4)cc12)-c5ccnc(N)n5]	> 5.30	< 5.30	–	–
Cc1c(-c2ccnc(N)n2)sc2ccc(CNC(=O)c3ccc(F)c(F)c3)cc12 [Example 157, Cc1c(sc2ccc(CNC(═O)c3ccc(F)c(F)c3)cc12)-c4ccnc(N)n4]	< 5.30	> 5.30	–	–
Cc1c(-c2ccnc(N)n2)sc2ccc(Cc3cccc(C(=O)NCCN4CCOCC4)c3)cc12 [Example 48, 3-((2-(2-Aminopyrimidin-4-yl)-3-methylbenzo[b]thiophen-5-yl)methyl)-N-(3-morpholinoethyl)benzamide]	> 5.30	> 5.30	–	–
Cc1c(-c2ccnc(N)n2)sc2ccc(Cc3cccc(C(=O)Nc4ccc(N5CCOCC5)cc4)c3)cc12 [Example 45, 3-((2-(2-Aminopyrimidin-4-yl)-3-methylbenzo[b]thiophen-5-yl)methyl)-N-(4-morpholinophenyl)benzamide]	> 5.30	> 5.30	–	–
Cc1c(-c2ccnc(N)n2)sc2ccc(CNC(=O)c3ccc(C(C)C)cc3)cc12 [Example 166, CC(C)c1ccc(cc1)C(═O)NCc2ccc3sc(c(C)c3c2)-c4ccnc(N)n4]	< 5.30	< 5.30	–	–
Cc1c(-c2ccnc(N)n2)sc2ccc(CNC(=O)c3ccc(Cl)c([N+](=O)[O-])c3)cc12 [Example 268, Cc1c(sc2ccc(CNC(═O)c3ccc(Cl)c(c3)[N+]([O−])═O)cc12)-c4ccnc(N)n4]	< 5.30	> 5.30	–	–
Cc1c(-c2ccnc(N)n2)sc2ccc(CNC(=O)c3ccc4cccc(O)c4n3)cc12 [Example 240, Cc1c(sc2ccc(CNC(═O)c3ccc4cccc(O)c4n3)cc12)-c5ccnc(N)n5]	> 5.30	> 5.30	–	–
Cc1c(-c2ccnc(N)n2)sc2ccc(CNC(=O)C(F)(F)F)cc12 [Example 105, Cc1c(sc2ccc(CNC(═O)C(F)(F)F)cc12)-c3ccnc(N)n3]	< 5.30	> 5.30	–	–

More lines, main results first:

pIC50 [1, 3]	pIC50 [2, 4]	SMILES	pIC50 ([1]; ROCK1 IC50, recombinant GST-tagged human ROCK1, luciferase-based ATP consumption)	pIC50 ([2]; ROCK2 IC50, recombinant GST-tagged human ROCK2, luciferase-based ATP consumption)
< 5.30	> 5.30	Cc1c(-c2ccnc(N)n2)sc2ccc(CNC(=O)c3cccc(I)c3)cc12 [Example 320, Cc1c(sc2ccc(CNC(═O)c3cccc(I)c3)cc12)-c4ccnc(N)n4]	–	–
> 5.30	> 5.30	COc1cccc(Sc2ccc3sc(-c4ccnc(N)n4)c(C)c3c2)c1 [Example 83, 4-(5-(3-Methoxyphenylthio)-3-methylbenzo[b]thiophen-2-yl)pyrimidin-2-amine]	–	–
> 5.30	< 5.30	Cc1c(C(=O)NCc2ccc3sc(-c4ccnc(N)n4)c(C)c3c2)oc2ccccc12 [Example 197, Cc1c(oc2ccccc12)C(═O)NCc3ccc4sc(c(C)c4c3)-c5ccnc(N)n5]	–	–
> 5.30	< 5.30	Cc1c(-c2ccnc(N)n2)sc2ccc(CNC(=O)C(NC(=O)OC(C)(C)C)C(C)C)cc12 (centres unmarked) [Example 292, CC(C)[C](NC(═O)OC(C)(C)C)C(═O)NCc1ccc2sc(c(C)c2c1)-c3ccnc(N)n3]	–	–
> 5.30	> 5.30	Cc1c(-c2ccnc(N)n2)sc2ccc(Nc3cncc(C(=O)O)c3)cc12 [Example 71, 5-(2-(2-Aminopyrimidin-4-yl)-3-methylbenzo[b]thiophen-5-ylamino)nicotinic acid]	–	–
> 5.30	> 5.30	COc1nccc(Nc2ccc3sc(-c4ccnc(N)n4)c(C)c3c2)n1 [Example 74, 4-(5-(2-Methoxypyrimidin-4-ylamino)-3-methylbenzo[b]thiophen-2-yl)pyrimidin-2-amine]	–	–
> 5.30	> 5.30	Cc1c(-c2ccnc(N)n2)sc2ccc(CNC(=O)c3cc(F)cc(F)c3)cc12 [Example 156, Cc1c(sc2ccc(CNC(═O)c3cc(F)cc(F)c3)cc12)-c4ccnc(N)n4]	–	–
> 5.30	< 5.30	Cc1c(-c2ccnc(N)n2)sc2ccc(-c3ccccc3)cc12 [Example 88, 4-(3-Methyl-5-phenylbenzo[b]thiophen-2-yl)pyrimidin-2-amine]	–	–
< 5.30	> 5.30	Cc1cc(C)c(C(=O)NCc2ccc3sc(-c4ccnc(N)n4)c(C)c3c2)c(C)c1 [Example 170, Cc1cc(C)c(c(C)c1)C(═O)NCc2ccc3sc(c(C)c3c2)-c4ccnc(N)n4]	–	–
> 5.30	< 5.30	Cc1c(-c2ccnc(N)n2)sc2ccc(C(=O)O)cc12 [Example 19, 2-(2-Aminopyrimidin-4-yl)-3-methylbenzo[b]thiophene-5-carboxylic acid]	–	–
< 5.30	< 5.30	Cc1c(-c2c[nH]c3ncccc23)sc2ccc(Cl)cc12 [Example 5, 3-(5-Chloro-3-methylbenzo[b]thiophen-2-yl)-1H-pyrrolo[2,3-b]pyridine]	–	–
> 5.30	> 5.30	Cc1c(-c2ccnc(N)n2)sc2ccc(Cc3cccc(OCCCN)c3)cc12 [Example 31, 4-(5-(3-(3-Aminopropoxy)benzyl)-3-methylbenzo[b]thiophen-2-yl)pyrimidin-2-amine]	–	–
> 5.30	> 5.30	COc1ccc([N+](=O)[O-])c(C(=O)NCc2ccc3sc(-c4ccnc(N)n4)c(C)c3c2)c1 [Example 259, COc1ccc(c(c1)C(═O)NCc2ccc3sc(c(C)c3c2)-c4ccnc(N)n4)[N+]([O−])═O]	–	–
> 5.30	> 5.30	CC(=O)Oc1ccc(C(=O)Nc2cccc(Nc3ccc4sc(-c5ccnc(N)n5)c(C)c4c3)c2)cc1 [Example 60, 4-(3-(2-(2-Aminopyrimidin-4-yl)-3-methylbenzo[b]thiophen-5-ylamino)phenylcarbamoyl)phenyl acetate]	–	–
> 5.30	> 5.30	Cc1c(-c2ccnc(N)n2)sc2ccc(Cc3cccc(C(=O)Nc4ccc(OCCN5CCCCC5)cc4)c3)cc12 [Example 44, 3-((2-(2-Aminopyrimidin-4-yl)-3-methylbenzo[b]thiophen-5-yl)methyl)-N-(4-(2-(piperidin-1-yl)ethoxy)phenyl)benzamide]	–	–
< 5.30	> 5.30	Cc1c(-c2ccnc(N)n2)sc2ccc(CNC(=O)c3ccccc3-c3ccccc3)cc12 [Example 261, Cc1c(sc2ccc(CNC(═O)c3ccccc3-c4ccccc4)cc12)-c5ccnc(N)n5]	–	–
< 5.30	> 5.30	Cc1c(-c2ccnc(N)n2)sc2ccc(CNC(=O)c3ccccc3Cc3ccccc3)cc12 [Example 281, Cc1c(sc2ccc(CNC(═O)c3ccccc3Cc4ccccc4)cc12)-c5ccnc(N)n5]	–	–
> 5.30	> 5.30	Cc1c(-c2ccnc(N)n2)sc2ccc(N)cc12 [Example 72, 4-(5-Amino-3-methylbenzo[b]thiophen-2-yl)pyrimidin-2-amine]	–	–
> 5.30	> 5.30	Cc1c(-c2ccnc(N)n2)sc2ccc(CNC(=O)c3cccs3)cc12 [Example 34, N-((2-(2-Aminopyrimidin-4-yl)-3-methylbenzo[b]thiophen-5-yl)methyl)thiophene-2-carboxamide]	–	–
< 5.30	> 5.30	Cc1c(-c2ccnc(N)n2)sc2ccc(CNC(=O)c3cc(O)c(O)c(O)c3)cc12 [Example 185, Cc1c(sc2ccc(CNC(═O)c3cc(O)c(O)c(O)c3)cc12)-c4ccnc(N)n4]	–	–
> 5.30	> 5.30	Cc1c(-c2ccnc(N)n2)sc2ccccc12 [Example 14, 4-(3-Methylbenzo[b]thiophen-2-yl)pyrimidin-2-amine]	–	–
> 5.30	< 5.30	Cc1c(-c2ccnc(N)n2)sc2ccc(CNC(=O)C3CCCN3C(=O)OCc3ccccc3)cc12 (centres unmarked) [Example 321, Cc1c(sc2ccc(CNC(═O)[C]3CCCN3C(═O)OCc4ccccc4)cc12)-c5ccnc(N)n5]	–	–
